Like-named read-outs stand apart in the source and are kept apart here.
What was measured:
[1] = target: T1, DOR (Rattus norvegicus, UniProt P33533); assay: Radioligand competition binding with [3H]IleDelt II
T1 construct: a: performed in rat whole brain membrane homogenates; from tissue; host or cells: Wistar rat whole brain membrane homogenate
Protocol: (§1) Tris-HCl, EGTA, NaCl, MgCl2 x 6H2O, GDP, the GTP analogue GTPγS, were purchased from Sigma-Aldrich (Budapest, Hungary). Fatty acid free bovine serum albumin (BSA) was purchased from Serva (Heidelberg, Germany). Naloxone was kindly provided by the company Endo Laboratories DuPont de Nemours (Wilmington, DE, USA). HS665 was provided by Schmidhammer’s group (University of Innsbruck, Austria). […]
(§2) purchased from Tocris Bioscience (Bristol, UK).
(§3) DMSO. All compounds were stored in 1 mM stock solution at -20 °C. The radiolabelled GTP analogue, [35S]GTPγS (specific activity: 1000 Ci/mmol) were purchased from Hartmann Analytic (Braunschweig, Germany). [3H]DAMGO (specific activity: 38.8 Ci/mmol),12 [3H]IleDelt II (specific activity: 19,6 Ci/mmol), [3H]WIN55,212-2 (specific activity: 13,1 Ci/mmol) and [3H]HS665 (specific activity: 36.62 Ci/mmol),3 were radiolabeled by the Laboratory of Chemical Biology group in BRC (Szeged, Hungary).
(§4) For membrane homogenate preparations male and female Wistar rats (250-300 g body weight) and male guinea pigs (~700 g body weight, LAL/HA/BR strain) were used. Rats were housed in the local animal house of BRC (Szeged, Hungary), while guinea pigs were housed in LAB-ÁLL Bt.
(§5) (Budapest, Hungary). All the animals were kept in a temperature controlled room (21-24 °C) under a 12:12 light and dark cycle and were provided with water and food ad libitum. All housing and experiments were conducted in accordance with the European Communities Council Directives (2010/63/EU) and the Hungarian Act for the Protection of Animals in Research (XXVIII.tv. 32.§).
(§6) The total number of animals as well as their suffering was minimized.
(§7) Rat and guinea pig brain membrane homogenate preparation for binding assays Rats and guinea pigs were decapitated and their brains were quickly removed. The brains were prepared for membrane preparation as previously described,4 and partly used for binding experiments and partly were further prepared for the [35S]GTPγS binding experiments. Briefly the brains were homogenized, centrifuged in ice-cold 50 mM Tris-HCl (pH 7.4) buffer and incubated at 37 °C for 30 min in a shaking water-bath. After incubation the centrifugation was repeated as described above and the final pellet was suspended in 50 mM Tris-HCl pH 7.4 buffer containing 0.32 M sucrose, and stored at -80 °C. For the [35S]GTPγS binding experiments the final pellet of rat […]
(§8) brain membrane homogenate was suspended in ice-cold TEM (Tris-HCl, EGTA, MgCl2) and stored at -80 °C for further use.
(§9) Radioligand competition binding experiments
(§10) Aliquots of frozen rat brain membrane homogenates were centrifuged (18 000 rpm, 20 min, 4 °C) to remove sucrose and the pellets were suspended in 50 mM Tris-HCl buffer (pH 7.4). Membranes containing 0.4-0.8 mg/mL of protein were incubated in a final volume of 1 mL in the presence of unlabeled 5, 10 and 9 in increasing concentrations (10-11-10-5 M) in the presence of the appropriate radioligand in ~1 nM concentrations at certain temperature and amount of time depending on the radioligand ([3H]DAMGO and [3H]IleDelt II: 35 °C for 45 min; [3H]HS665: 30 °C, 45 min; [3H]WIN55,212-2: 30 °C for 60 min). Experiments performed with [3H]HS665 where incubated […]
(§11) more kappa receptors than the rat brain), while the rest of the radioligands were incubated together with rat whole brain membrane homogenates. Additionally, in experiments performed with […]
increasing concentrations (10-11-10-5 M) together with 50 mM Tris/HCl, 2.5 mM EGTA, 5 mM MgCl2 and 0.5 mg/mL fatty acid free BSA (pH 7.4). The level of non-specific binding was […]
binding was determined in the absence of unlabeled compounds. The reaction was terminated by rapid filtration under vacuum (Brandel M24R Cell Harvester), and washed three times with 5 mL ice-cold 50 mM Tris-HCl or 50 mM Tris/HCl, 2.5 mM EGTA, 5 mM MgCl2, 0.5 % BSA (pH 7.4) in case of [3H]WIN55,212-2. The filtration was accomplished through Whatman GF/C ([3H]DAMGO, [3H]IleDelt II and [3H]HS665) or GF/B ([3H]WIN55,212-2) glass fibers. In case of […]

[2] = target: T2, KOR (Cavia porcellus, UniProt P41144); assay: Radioligand competition binding with [3H]HS665; parameters: species or system guinea pig
T2 construct: b: performed in guinea pig whole brain membrane homogenates; from tissue; host or cells: guinea pig (LAL/HA/BR strain) whole brain membrane homogenate
Protocol: as §1, §2, §3, §4, §5, §6, §7, §8, §9, §10, §11
binding was determined in the absence of unlabeled compounds. […]

Compound | DOR binding affinity in words [1] | logIC50 ± S.E.M., [3H]IleDelt II (DOR) ([1]; rat whole brain membrane homogenates, logarithm of IC50, negative sign printed) | KOR binding affinity in words [2] | IC50 [1] | Ki [1] | Ki ([1]; rat whole brain membrane homogenates, Cheng-Prusoff) | IC50 ([1]; rat whole brain membrane homogenates, logarithm of IC50, negative sign printed, read-out: logIC50 ± S.E.M., [3H]IleDelt II (DOR) (converted)) | Ki ([2]; guinea pig whole brain membrane homogenates, Cheng-Prusoff) | IC50 ([2]; guinea pig whole brain membrane homogenates, logarithm of IC50, negative sign printed, read-out: logIC50 ± S.E.M., [3H]HS665 (KOR) (converted)) | Selectivity ratio DOR/KOR ([2]; ratio of Ki values)
Cc1c(C(=O)NC2CCNCC2)nn(-c2ccc(Cl)cc2Cl)c1-n1cccc1 [Compound 5] | did not bind | ambiguous | negligible |  |  |  |  |  |  | 
C[C@@H](NC(=O)[C@@H](N)Cc1ccc(O)cc1)C(=O)NCC(=O)N[C@@H](Cc1ccccc1)C(N)=O [Compound 10, Tyr-D-Ala-Gly-Phe-NH2, reference compound] | high affinity |  |  | 316 nM | 107 nM |  |  |  |  | 
Cc1c(C(=O)NC2CCN(C(=O)[C@H](Cc3ccccc3)NC(=O)CNC(=O)[C@@H](C)NC(=O)[C@@H](N)Cc3ccc(O)cc3)CC2)nn(-c2ccc(Cl)cc2Cl)c1-n1cccc1 [Compound 9] | loss in affinity |  | unexpected improvement of affinity |  |  | 443 nM | 1290 nM | 170 nM | 263 nM | 2.61
